Data set [1] in a line: Cytotoxicity against african green monkey Vero cells after 72 hrs by MTT assay. The class given is cell-based. The following applies: chlorocebus sabaeus.
Data set [2] deals with Mycobacterium tuberculosis. The data set can be described thus: Antitubercular activity against Mycobacterium tuberculosis H37Rv measured on day 4 by microplate Alamar blue assay. It is filed as functional. The following applies: 96 h.
A short description of data set [3]: Selectivity index, ratio of CC50 for african green monkey Vero cells to MIC for Mycobacterium tuberculosis H37Rv. It is filed as toxicity, cell-based. The note with it: read-out: Selectivity Index.

Values after ≈ are worked out from the molar mass of the structure shown.

This is an account of results in ChEMBL document CHEMBL3734709, “Design, synthesis and evaluation of diarylpiperazine derivatives as potent anti-tubercular agents” (Eur J Med Chem, 2015).

For the compound `Cn1c2ccccc2c2cc(C(=O)N3CCN(c4ccccc4)CC3)nc(-c3ccccc3)c21`, the CC50 (usually the concentration that lowers cell viability or growth by half) at 72 h in data set [1] is greater than 50 mg/L. For the same compound, the MIC90 (as a rule, an inhibitory concentration at the 90% level, which refers to growth in some studies and to a panel of isolates in others) in data set [2] stood at 27.4 µM (≈ 12.2 µg/mL). Moreover, the selectivity ratio in data set [3] is greater than 4.1.

As to `Cc1ccc(N2CCN(C(=O)c3cc4c5ccccc5n(C)c4c(-c4ccccc4)n3)CC2)cc1`, the CC50 at 72 h in data set [1] is greater than 50 mg/L. The compound also showed an MIC90 in data set [2] of 9.3 µM (≈ 4.28 µg/mL). The selectivity ratio in data set [3] was greater than 11.6.

For `Cc1ccccc1N1CCN(C(=O)c2cc3c4ccccc4n(C)c3c(-c3ccccc3)n2)CC1`, the CC50 at 72 h in data set [1] is greater than 50 mg/L. The same compound registered an MIC90 in data set [2] of 5.2 µM (≈ 2.4 µg/mL). Moreover, the selectivity ratio in data set [3] was greater than 20.8.

As to `COc1ccc(N2CCN(C(=O)c3cc4c5ccccc5n(C)c4c(-c4ccccc4)n3)CC2)cc1`, the CC50 at 72 h in data set [1] is greater than 50 mg/L. In addition, the MIC90 in data set [2] is 10.1 µM (≈ 4.81 µg/mL). Besides, the selectivity ratio in data set [3] was greater than 8.6.

Take `COc1ccccc1N1CCN(C(=O)c2cc3c4ccccc4n(C)c3c(-c3ccccc3)n2)CC1`: in data set [1], the CC50 at 72 h was greater than 50 mg/L. Also, the MIC90 in data set [2] was 3.5 µM (≈ 1.67 µg/mL). The selectivity ratio in data set [3] was greater than 25.

For `Cn1c2ccccc2c2cc(C(=O)N3CCN(c4ccc(Cl)cc4)CC3)nc(-c3ccccc3)c21`, the CC50 at 72 h in data set [1] is greater than 50 mg/L. In data set [2], this compound yielded an MIC90 of 83.3 µM (≈ 40.1 µg/mL). The selectivity ratio in data set [3] was greater than 1.3.

Consider `Cn1c2ccccc2c2cc(C(=O)N3CCN(c4cccc(Cl)c4)CC3)nc(-c3ccccc3)c21`, for which, in data set [1], the CC50 at 72 h was greater than 50 mg/L. The compound further returned an MIC90 in data set [2] of 79.6 µM (≈ 38.3 µg/mL). Also, the selectivity ratio in data set [3] was greater than 1.3.

In turn, `Cn1c2ccccc2c2cc(C(=O)N3CCN(c4ccccc4Cl)CC3)nc(-c3ccccc3)c21` displayed a CC50 at 72 h in data set [1] greater than 50 mg/L. The MIC90 in data set [2] came to 5 µM (≈ 2.4 µg/mL). The selectivity ratio in data set [3] is greater than 20.8.

In the case of `Cn1c2ccccc2c2cc(C(=O)N3CCN(c4ccc(F)cc4)CC3)nc(-c3ccccc3)c21`, the 50% cytotoxic concentration (CC50) at 72 h in data set [1] is greater than 50 mg/L. The MIC90 in data set [2] was 5.6 µM (≈ 2.6 µg/mL). Moreover, in data set [3], the selectivity ratio was greater than 19.2.

Compound `Cn1c2ccccc2c2cc(C(=O)N3CCN(c4ccccc4F)CC3)nc(-c3ccccc3)c21` came in with a CC50 at 72 h in data set [1] greater than 50 mg/L. The MIC90 in data set [2] came to 5.8 µM (≈ 2.69 µg/mL). Further, the selectivity ratio in data set [3] was greater than 18.5.

`Cn1c2ccccc2c2cc(C(=O)N3CCN(c4cccc(Cl)c4Cl)CC3)nc(-c3ccccc3)c21`: the CC50 at 72 h in data set [1] is greater than 50 mg/L. In addition, the MIC90 in data set [2] was found to be 2.9 µM (≈ 1.49 µg/mL). The selectivity ratio in data set [3] was greater than 33.3.

As for `Cn1c2ccccc2c2cc(C(=O)N3CCN(Cc4ccccc4)CC3)nc(-c3ccccc3)c21`, the CC50 at 72 h in data set [1] was greater than 50 mg/L. The compound further registered an MIC90 in data set [2] of 8.9 µM (≈ 4.1 µg/mL). The selectivity ratio in data set [3] was greater than 12.2.

For `Cn1c2ccccc2c2cc(C(=O)N3CCN(c4ccncc4)CC3)nc(-c3ccccc3)c21`, in data set [1], the CC50 at 72 h is 18 mg/L (≈ 40.2 µM). In addition, the MIC90 in data set [2] is 9.8 µM (≈ 4.39 µg/mL). Moreover, the selectivity ratio in data set [3] worked out at 4.5.

For `Cn1c2ccccc2c2cc(C(=O)N3CCN(c4ccccn4)CC3)nc(-c3ccccc3)c21`, the CC50 at 72 h in data set [1] was greater than 50 mg/L. The MIC90 in data set [2] amounted to 9.8 µM (≈ 4.39 µg/mL). Further, the selectivity ratio in data set [3] is greater than 11.4.

Regarding `CO[C@H]1/C=C/O[C@@]2(C)Oc3c(C)c(O)c4c(O)c(c(/C=N/N5CCN(C)CC5)c(O)c4c3C2=O)NC(=O)/C(C)=C\C=C\[C@H](C)[C@H](O)[C@@H](C)[C@@H](O)[C@@H](C)[C@H](OC(C)=O)[C@@H]1C` [RIFAMPIN], in data set [1], the CC50 at 72 h is greater than 150 mg/L. This compound displayed an MIC90 in data set [2] of 0.13 µM (≈ 0.107 µg/mL). The selectivity ratio in data set [3] is greater than 1360.
